What is called IC50 is the point on the concentration scale where inhibition reaches its midpoint.

This assay deals with mTOR/GbL/Raptor (mTORC1) (Homo sapiens, UniProt P42345). Put plainly: mTOR/GbL/Raptor (mTORC1) ELISA assay, phosphorylation of 4E-BP1. Format: biochemical. To be noted: 0.2 nM mTORC1, 40 uM ATP, 50 nM NHis-tagged 4E-BP1, 120 minutes; read-out: IC50 in this assay (mTORC1 ELISA). As to the method: The measurement of mTORC1 enzyme activity was performed in an ELISA assay format following the phosphorylation of 4E-BP1 protein. All experiments were performed in the 384-well format. Generally, 0.5 μL DMSO containing varying concentrations of the test Compound was mixed with 15 μL enzyme solution. Kinase reactions were initiated with the addition of 15 μL of substrates-containing solution. The assay conditions were-as follows; 0.2 nM mTORC1, 40 uM ATPand 50 nM NHis-tagged4E-BP1 in20 mM Hepes, pH 7.2, 1 mM DTT, 50 mMNaC1, 10 mM MnC12, 0.02 mg/mL BSA, 0.01% CHAPS, 50 mM β-glycerophosphate. Following an incubation of 120 minutes at anibient temperature, 20 μL of the reaction volume was transferred to a Ni-Chelate-coated 384-well plate. The binding step of the 4E-BP1 protein proceeded for 60 minutes, followed by washing 4 times each with 50 uL of Tris-buffered saline solution (TBS). Anti-phospho-4E-BPl rabbit-IgG ([…]. 1:5000) in 5% BSA-TBST (0.2% Tween-20 in TBS) was added and further incubated for 60 minutes. Incubation with a secondary HRP-tagged anti-IgG was similarly performed after washing off the primary antibody (4 washes of 50 μL). Following the final wash step with TBST, 20 μL of SuperSignal ELISA Femto (Pierce Biotechnology) was added and the luminescence measured using an En Vision plate reader.
(ELISA stands for enzyme-linked immunosorbent assay.)
For `CNCc1nc(C)c(C(C)C)c(N2CCOc3c(C)cc(-c4cnc5sc(N)nc5c4)cc3C2)n1` [Compound 136, 6-(9-methyl-4-{6-methyl-2-[(methylamino)methyl]-5-(1-methylethyl)pyrimidin-4-yl}-2,3,4,5-tetrahydro-1,4-benzoxazepin-7-yl)[1,3]thiazolo[5,4-b]pyridin-2-amine], the IC50 is at most 100 nM.
In the case of `Cc1cc(-c2cnc3sc(N)nc3c2)cc2c1OCCN(c1nc(CN(C)C)nc(C)c1C(C)C)C2` [Compound 31, 6-(4-{2-[(dimethylamino)methyl]-6-methyl-5-(1-methylethyl)pyrimidin-4-yl}-9-methyl-2,3,4,5-tetrahydro-1,4-benzoxazepin-7-yl)[1,3]thiazolo[5,4-b]pyridin-2-amine], the IC50 is at most 100 nM.
For `Cc1cc(-c2cnc(N)c(S(N)(=O)=O)c2)cc2c1OCCN(c1nc(N)nc(C)c1C(C)C)C2` [Compound 5, 2-amino-5-{4-[2-amino-6-methyl-5-(1-methylethyl)pyrimidin-4-yl]-9-methyl-2,3,4,5-tetrahydro-1,4-benzoxazepin-7-yl}pyridine-3-sulfonamide], the IC50 was at most 100 nM.
To `Cc1nc2cc(-c3cc(C)c4c(c3)CN(c3nc(N)nc(C)c3C(C)C)CCO4)cnc2[nH]1` [Compound 162, 4-methyl-5-(1-methylethyl)-6-[9-methyl-7-(2-methyl-3H-imidazo[4,5-b]pyridin-6-yl)-2,3-dihydro-1,4-benzoxazepin-4(5H)-yl]pyrimidin-2-amine] belongs at most 100 nM; to `Cc1cc(-c2cnc3sc(N)nc3c2)cc2c1OCCN(c1ncnc3c1CC[C@H](C)C3)C2` [Compound 30, 6-{9-methyl-4-[(7S)-7-methyl-5,6,7,8-tetrahydroquinazolin-4-yl]-2,3,4,5-tetrahydro-1,4-benzoxazepin-7-yl}[1,3]thiazolo[5,4-b]pyridin-2-amine], at most 100 nM.
Turning to `Cc1cc(-c2cnc3sc(N)nc3c2)cc2c1OCCN(c1ncc(C(N)=O)c(N)n1)C2` [Compound 27, 4-amino-2-[7-(2-amino[1,3]thiazolo[5,4-b]pyridin-6-yl)-9-methyl-2,3-dihydro-1,4-benzoxazepin-4(5H)-yl]pyrimidine-5-carboxamide], the IC50 fell in the range of 100 to 500 nM.
`Cc1cc(-c2cn[nH]c2)cc2c1OCCN(c1nc(N)nc(C)c1C(C)C)C2` [Compound 80, 4-methyl-5-(1-methylethyl)-6-[9-methyl-7-(1H-pyrazol-4-yl)-2,3-dihydro-1,4-benzoxazepin-4(5H)-yl]pyrimidin-2-amine]: the half-inhibitory concentration (IC50) was at most 100 nM.
Next, `Cc1cc(-c2ccn[nH]2)cc2c1OCCN(c1nc(N)nc(C)c1C(C)C)C2` [Compound 72, 4-methyl-5-(1-methylethyl)-6-[9-methyl-7-(1H-pyrazol-5-yl)-2,3-dihydro-1,4-benzoxazepin-4(5H)-yl]pyrimidin-2-amine]: 100 to 500 nM.
To `Cc1cc(-c2cnc3sc(N)nc3c2)cc2c1OCCN(c1nc(C3CC3)nc(C)c1C(C)C)C2` [Compound 150, 6-{4-[2-cyclopropyl-6-methyl-5-(1-methylethyl)pyrimidin-4-yl]-9-methyl-2,3,4,5-tetrahydro-1,4-benzoxazepin-7-yl}[1,3]thiazolo[5,4-b]pyridin-2-amine] belongs at most 100 nM; to `CCNCc1nc(C)c(C(C)C)c(N2CCOc3c(C)cc(-c4cnc5sc(N)nc5c4)cc3C2)n1` [Compound 158, 6-(4-{2-[(ethylamino)methyl]-6-methyl-5-(1-methylethyl)pyrimidin-4-yl}-9-methyl-2,3,4,5-tetrahydro-1,4-benzoxazepin-7-yl)[1,3]thiazolo[5,4-b]pyridin-2-amine], at most 100 nM.
For `CCN(Cc1nc(C)c(C(C)C)c(N2CCOc3c(C)cc(-c4nnc(N)s4)cc3C2)n1)CC(F)F` [Compound 170, 5-{4-[2-{[(2,2-difluoroethyl)(ethyl)amino]methyl}-6-methyl-5-(1-methylethyl)pyrimidin-4-yl]-9-methyl-2,3,4,5-tetrahydro-1,4-benzoxazepin-7-yl}-1,3,4-thiadiazol-2-amine], the IC50 fell in the range of 100 to 500 nM.
To `Cc1cc(-c2cnc3sc(N)nc3c2)cc2c1OCCN(c1nc(C(O)C(F)(F)F)nc(C)c1C(C)C)C2` (stereo not shown) [Compound 94, 1-{4-[7-(2-amino[1,3]thiazolo[5,4-b]pyridin-6-yl)-9-methyl-2,3-dihydro-1,4-benzoxazepin-4(5H)-yl]-6-methyl-5-(1-methylethyl)pyrimidin-2-yl}-2,2,2-trifluoroethanol] belongs at most 100 nM; to `Cc1cc(-c2cnc3sc(N)nc3c2)cc2c1OCCN(c1nc(CNC3CC3)nc(C)c1C(C)C)C2` [Compound 121, 6-(4-{2-[(cyclopropylamino)methyl]-6-methyl-5-(1-methylethyl)pyrimidin-4-yl}-9-methyl-2,3,4,5-tetrahydro-1,4-benzoxazepin-7-yl)[1,3]thiazolo[5,4-b]pyridin-2-amine], at most 100 nM; to `COCCc1c(C)ncnc1N1CCOc2c(C)cc(-c3cnc4sc(N)nc4c3)cc2C1` [Compound 129, 6-(9-methyl-4-{6-methyl-5-[2-(methyloxy)ethyl]pyrimidin-4-yl}-2,3,4,5-tetrahydrio-1,4-benzoxazepin-7-yl)[1,3]thiazolo[5,4-b]pyridin-2-amine], at most 100 nM.
`CC#CCc1c(C)nc(C)nc1N1CCOc2c(C)cc(-c3cnc4sc(N)nc4c3)cc2C1` [Compound 141, 6-[4-(5-but-2-yn-1-yl-2,6-dimethylpyrimidin-4-yl)-9-methyl-2,3,4,5-tetrahydro-1,4-benzoxazepin-7-yl][1,3]thiazolo[5,4-b]pyridin-2-amine]: the IC50 was at most 100 nM.
Consider `Cc1cc(-c2cnc(N)nc2)cc2c1OCCN(c1nc(N)nc(C)c1C(C)C)C2` [Compound 81, 4-[7-(2-aminopyrimidin-5-yl)-9-methyl-2,3-dihydro-1,4-benzoxazepin-4(5H)-yl]-6-methyl-5-(1-methylethyl)pyrimidin-2-amine], for which the IC50 is 100 to 500 nM.
To `COc1cc(-c2cnc3sc(N)nc3c2)cc2c1OCCN(c1nc(CN(C)C)nc(C)c1C(C)C)C2` [Compound 157, 6-[4-{2-[(dimethylamino)methyl]-6-methyl-5-(1-methylethyl)pyrimidin-4-yl}-9-(methyloxy)-2,3,4,5-tetrahydro-1,4-benzoxazepin-7-yl][1,3]thiazolo[5,4-b]pyridin-2-amine] belongs 100 to 500 nM.
Next, `Cc1cc(-c2cnc3sc(N)nc3c2)cc2c1OCCN(c1nc(N)nc(C)c1CC1CC1)C2` [Compound 46, 6-{4-[2-amino-5-(cyclopropylmethyl)-6-methylpyrimidin-4-yl]-9-methyl-2,3,4,5-tetrahydro-1,4-benzoxazepin-7-yl}[1,3]thiazolo[5,4-b]pyridin-2-amine]: at most 100 nM; `Cc1cc(-c2nnc(N)s2)cc2c1OCCN(c1nc(N)nc(C)c1C(C)C)C2` [Compound 137, 4-[7-(5-amino-1,3,4-thiadiazol-2-yl)-9-methyl-2,3-dihydro-1,4-benzoxazepin-4(5H)-yl]-6-methyl-5-(1-methylethyl)pyrimidin-2-amine]: at most 100 nM.
`Cc1cc(-c2cnc3sc(N)nc3c2)cc2c1OCCN(c1ncccc1C(N)=O)C2` [Compound 39, 2-[7-(2-amino[1,3]thiazolo[5,4-b]pyridin-6-yl)-9-methyl-2,3-dihydro-1,4-benzoxazepin-4(5H)-yl]pyridine-3-carboxamide]: the IC50 fell in the range of 100 to 500 nM.
For `Cc1cc(-c2cnc3sc(N)nc3c2)cc2c1OCCN(c1nc(N)c(C#N)cc1C#N)C2` [Compound 32, 2-amino-6-[7-(2-amino[1,3]thiazolo[5,4-b]pyridin-6-yl)-9-methyl-2,3-dihydro-1,4-benzoxazepin-4(5H)-yl]pyridine-3,5-dicarbonitrile], the IC50 is at most 100 nM.
For the molecule `CCc1cnc(CN(C)C)nc1N1CCOc2c(C)cc(-c3cnc4sc(N)nc4c3)cc2C1` [Compound 66, 6-(4-{2-[(dimethylamino)methyl]-5-ethylpyrimidin-4-yl}-9-methyl-2,3,4,5-tetrahydro-1,4-benzoxazepin-7-yl)[1,3]thiazolo[5,4-b]pyridin-2-amine], the IC50 was at most 100 nM.
Take `Cc1cc(-c2cnc3sc(N)nc3c2)cc2c1OCCN(c1nc(S(C)(=O)=O)nc(C)c1C(C)C)C2` [Compound 86, 6-{9-methyl-4-[6-methyl-5-(1-methylethyl)-2-(methylsulfonyl)pyrimidin-4-yl]-2,3,4,5-tetrahydro-1,4-benzoxazepin-7-yl}[1,3]thiazolo[5,4-b]pyridin-2-amine]: the IC50 was at most 100 nM.
As to `Cc1cc(-c2cnc3sc(N)nc3c2)cc2c1OCCN(c1ncnc(C)c1C(C)C)C2` [Compound 87, 6-{9-methyl-4-[6-methyl-5-(1-methylethyl)pyrimidin-4-yl]-2,3,4,5-tetrahydro-1,4-benzoxazepin-7-yl}[1,3]thiazolo[5,4-b]pyridin-2-amine], the IC50 was at most 100 nM.
Regarding `Cc1cc(-c2cnc(Cl)c(NS(C)(=O)=O)c2)cc2c1OCCN(c1nc(C(N)=O)nc(C)c1C(C)C)C2` [Compound 44, 4-[7-{6-chloro-5-[(methylsulfonyl)amino]pyridin-3-yl}-9-methyl-2,3-dihydro-1,4-benzoxazepin-4(5H)-yl]-6-methyl-5-(1-methylethyl)pyrimidine-2-carboxamide], the IC50 was at most 100 nM.

The values are drawn from patent US20140107100A1, “Benzoxazepines as Inhibitors of PI3K/mTOR and Methods of Their Use and Manufacture” (EXELIXIS, INC., priority 2010, published 2014).
